# Reference: patent US20260226073A1 (AURIGENE ONCOLOGY LIMITED, priority 2023, published 2026)
# Target: T1, human recombinant CBL-b (human Biotin CBL-b recombinant protein a.a. 39-426) (Homo sapiens, UniProt Q13191)
# T1 construct: human Biotin CBL-b recombinant protein a.a; 39-426; Biotin (biotinylated); made in house
# Assay: Biochemical assay for CBL-b inhibition (ligand displacement TR-FRET)
# Assay type: binding
# Settings: 50 nM CBL-b, 0.3 μM Bodipy FL-Probe, read-out: IC50 (CBL-b inhibition, group)
# Method in brief: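 Ligand-displacement TR-FRET: 0.3 μM Bodipy FL probe competes with compound for 50 nM biotin-CBL-b (aa 39-426) after a 60 min RT compound pre-incubation; terbium-streptavidin detection, 60 min each step. Dose-response sigmoidal fitting gave IC50 and % maximum inhibition.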
# T1 sequence (Q13191 39-426): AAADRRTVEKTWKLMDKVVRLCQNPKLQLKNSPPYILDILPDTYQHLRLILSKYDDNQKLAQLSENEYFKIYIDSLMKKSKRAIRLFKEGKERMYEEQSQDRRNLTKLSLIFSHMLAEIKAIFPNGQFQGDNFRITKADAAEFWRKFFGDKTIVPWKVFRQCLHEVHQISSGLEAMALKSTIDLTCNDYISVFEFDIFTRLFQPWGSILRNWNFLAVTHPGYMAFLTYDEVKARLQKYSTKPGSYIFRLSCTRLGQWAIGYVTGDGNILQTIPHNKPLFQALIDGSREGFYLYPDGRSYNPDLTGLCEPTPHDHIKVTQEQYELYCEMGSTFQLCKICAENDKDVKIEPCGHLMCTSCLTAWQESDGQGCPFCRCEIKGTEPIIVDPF
row,IC50 [nM],SMILES
1,< 80,"Cn1cnnc1C[C@]1(c2ccc3c(c2)C(=O)N(c2cc(CNCC4CC4)cc(Cl)n2)C3)C[C@@H](C#N)C1 (single isomer, unassigned) [Compound 234, (1s,3s)-3-(2-(6-Chloro-4-(((cyclopropylmethyl)amino)methyl)pyridin-2-yl)-3-oxoisoindolin-5-yl)-3-((4-methyl-4H-1,2,4-triazol-3-yl)methyl)cyclobutane-1-carbonitrile]"
2,300 to 5000,"C[C@H]1CCCN(Cc2cc(Cl)nc(N3Cc4ccc(-c5c(-c6nncn6C)cnn5C)cc4C3=O)c2)C1 [Compound 114, (S)-2-(6-Chloro-4-((3-methylpiperidin-1-yl)methyl)pyridin-2-yl)-6-(1-methyl-4-(4-methyl-4H-1,2,4-triazol-3-yl)-1H-pyrazol-5-yl)isoindolin-1-one]"
3,300 to 5000,"Cc1cc(CO)cc(N2Cc3ccc(-c4ccc(F)cc4-c4nncn4C)cc3C2=O)n1 [Compound 136, 6-(4-Fluoro-2-(4-methyl-4H-1,2,4-triazol-3-yl)phenyl)-2-(4-(hydroxymethyl)-6-methylpyridin-2-yl)isoindolin-1-one]"
4,300 to 5000,"Cc1cc(N2Cc3ccc(C4(Cc5nncn5C)COC4)cc3C2=O)cc2c1cnn2CCN(C)C [Compound 76, 2-(1-(2-(Dimethylamino)ethyl)-4-methyl-1H-indazol-6-yl)-6-(3-((4-methyl-4H-1,2,4-triazol-3-yl)methyl)oxetan-3-yl)isoindolin-1-one]"
5,300 to 5000,Cc1ccnc(CNCc2cc(Cl)nc(N3Cc4ccc(C5(Cc6nncn6C)COC5)cc4C3=O)c2)c1 [Compound 236]
6,300 to 5000,"Cc1nccn1Cc1cc(N2Cc3ccc(C4(Cc5nncn5C)COC4)cc3C2=O)nc(C(F)(F)F)c1 [Compound 54, 2-(4-((2-Methyl-1H-imidazol-1-yl)methyl)-6-(trifluoromethyl)pyridin-2-yl)-6-(3-((4-methyl-4H-1,2,4-triazol-3-yl)methyl)oxetan-3-yl)isoindolin-1-one]"
7,300 to 5000,Cn1cnnc1CC1(c2ccc3c(c2)C(=O)N(c2cc(CNC(C)(C)C4CC4)cc(Cl)n2)C3)COC1 [Compound 228]
8,80 to 300,"Cn1cnnc1CC1(c2ccc3c(c2)C(=O)N(c2cc(CNCC4(F)CC4)cc(Cl)n2)C3)COC1 [Compound 130, 2-(6-Chloro-4-((((1-fluorocyclopropyl)methyl)amino)methyl)-pyridin-2-yl)-6-(3-((4-methyl-4H-1,2,4-triazol-3-yl)methyl)oxetan-3-yl)isoindolin-1-one]"
9,300 to 5000,"Cn1cc2c(n1)CCCN2Cc1cc(N2Cc3ccc(C4(Cc5nncn5C)COC4)cc3C2=O)nc(C(F)(F)F)c1 [Compound 128, 2-(4-((2-Methyl-2,5,6,7-tetrahydro-4H-pyrazolo[4,3-b]pyridin-4-yl)methyl)-6-(trifluoromethyl)pyridin-2-yl)-6-(3-((4-methyl-4H-1,2,4-triazol-3-yl)methyl)oxetan-3-yl)isoindolin-1-one]"
10,300 to 5000,"Cn1cnnc1CC1(c2ccc3c(c2)C(=O)N(c2cc(CN4CCC5(CCCO5)C4)cc(C(F)(F)F)n2)C3)COC1 (stereo not shown) [Compound 50, 2-(4-((1-Oxa-7-azaspiro[4.4]nonan-7-yl)methyl)-6-(trifluoromethyl)pyridin-2-yl)-6-(3-((4-methyl-4H-1,2,4-triazol-3-yl)methyl)oxetan-3-yl)isoindolin-1-one]"
11,80 to 300,"C[C@@H](NCc1cscn1)c1cc(Cl)nc(N2Cc3ccc(C4(Cc5nncn5C)COC4)cc3C2=O)c1 (single isomer, unassigned) [Compound 217]"
12,300 to 5000,"CCN(CC)Cc1cc(Cl)nc(N2Cc3ccc(C4(Cc5nncn5C)COC4)cc3C2=O)c1 [Compound 79, 2-(6-Chloro-4-((diethylamino)methyl)pyridin-2-yl)-6-(3-((4-methyl-4H-1,2,4-triazol-3-yl)methyl)oxetan-3-yl)isoindolin-1-one]"
13,80 to 300,Cc1cc(CNCC2(C)COC2)cc(N2Cc3ccc(-c4ccc(F)cc4-c4nncn4C)cc3C2=O)n1 [Compound 292]
14,300 to 5000,CCC(NCc1cc(C)nc(N2Cc3ccc(-c4ccc(F)cc4-c4nncn4C)cc3C2=O)c1)C(=O)NC (stereo not shown) [Compound 327]
15,80 to 300,Cn1cnnc1CC1(c2ccc3c(c2)C(=O)N(c2cc(CNCc4ccccn4)cc(Cl)n2)C3)COC1 [Compound 203]
16,300 to 5000,"Cn1cnnc1CC1(c2ccc3c(c2)C(=O)N(c2cc(CN4CCC5(CCCO5)CC4)cc(C(F)(F)F)n2)C3)COC1 [Compound 32, 2-(4-((1-Oxa-8-azaspiro[4.5]decan-8-yl)methyl)-6-(trifluoromethyl)pyridin-2-yl)-6-(3-((4-methyl-4H-1,2,4-triazol-3-yl)methyl)oxetan-3-yl)isoindolin-1-one]"
17,300 to 5000,"C[C@@H](NCc1ccccn1)c1cc(Cl)nc(N2Cc3ccc(C4(Cc5nncn5C)COC4)cc3C2=O)c1 (single isomer, unassigned) [Compound 241]"
18,300 to 5000,Cc1cc(CNC(C)(C)C)cc(N2Cc3ccc(-c4ccc(F)cc4-c4nncn4C)cc3C2=O)n1 [Compound 299]
19,300 to 5000,"Cn1cnnc1CC1(c2ccc3c(c2)C(=O)N(c2cc(CN4CCC(O)CC4)cc(C(F)(F)F)n2)C3)COC1 [Compound 43, 2-(4-((4-Hydroxypiperidin-1-yl)methyl)-6-(trifluoromethyl)pyridin-2-yl)-6-(3-((4-methyl-4H-1,2,4-triazol-3-yl)methyl)oxetan-3-yl)isoindolin-1-one]"

row,IC50 [nM],SMILES
1,300 to 5000,Cc1cc(CNCC(O)CN)cc(N2Cc3ccc(-c4ccc(F)cc4-c4nncn4C)cc3C2=O)n1 (stereo not shown) [Compound 318]
2,300 to 5000,"C[C@@H]1CN(Cc2cc(N3Cc4ccc(C5(Cc6nncn6C)COC5)cc4C3=O)nc(C(F)(F)F)c2)C[C@H](C)N1 [Compound 98, 2-(4-(((3R,5S)-3,5-Dimethylpiperazin-1-yl)methyl)-6-(trifluoro-methyl)pyridin-2-yl)-6-(3-((4-methyl-4H-1,2,4-triazol-3-yl)methyl)oxetan-3-yl)-isoindolin-1-one]"
3,80 to 300,Cc1cc(CN[C@H](CO)CC(C)C)cc(N2Cc3ccc(-c4ccc(F)cc4-c4nncn4C)cc3C2=O)n1 [Compound 322]
4,80 to 300,Cc1cc(CNCC2CC2)cc(N2Cc3ccc(-c4cc(F)c(F)cc4-c4nncn4C)cc3C2=O)n1 [Compound 267]
5,300 to 5000,CCN1CCC[C@@H]1CNCc1cc(C)nc(N2Cc3ccc(-c4ccc(F)cc4-c4nncn4C)cc3C2=O)c1 [Compound 317]
6,80 to 300,COc1cc(CNCC2CCC2)cc(N2Cc3ccc(C(C)Cc4nncn4C)cc3C2=O)n1 (stereo not shown) [Compound 254]
7,300 to 5000,"C[C@@H]1CN(Cc2cc(N3Cc4ccc(C5(Cc6nncn6C)COC5)cc4C3=O)nc(C(F)(F)F)c2)CCN1 [Compound 96, (R)-6-(3-((4-Methyl-4H-1,2,4-triazol-3-yl)methyl)oxetan-3-yl)-2-(4-((3-methylpiperazin-1-yl)methyl)-6-(trifluoromethyl)pyridin-2-yl)isoindolin-1-one]"
8,80 to 300,Cn1cnnc1CC1(c2ccc3c(c2)C(=O)N(c2cc(CNc4ccccn4)cc(Cl)n2)C3)COC1 [Compound 238]
9,300 to 5000,Cc1cc(CNCC2CC2)cc(N2Cc3ccc(-c4cccnc4-c4nncn4C)cc3C2=O)n1 [Compound 266]
10,80 to 300,Cc1ccc(CNCc2cc(Cl)nc(N3Cc4ccc(C5(Cc6nncn6C)COC5)cc4C3=O)c2)o1 [Compound 226]
11,80 to 300,Cc1cc(CNCC2CC2)cc(N2Cc3ncc(-c4ccc(Cl)cc4-c4nncn4C)cc3C2=O)n1 [Compound 264]
12,300 to 5000,Cc1cc(CNCC2CC2)cc(N2Cc3ccc(-c4ccc(F)c(F)c4-c4nncn4C)cc3C2=O)n1 [Compound 257]
13,300 to 5000,"Cc1cc(NCC2CCCN2)cc(N2Cc3ccc(C4(Cc5nncn5C)COC4)cc3C2=O)n1 (stereo not shown) [Compound 336, 2-(6-Methyl-4-((pyrrolidin-2-ylmethyl)amino)pyridin-2-yl)-6-(3-((4-methyl-4H-1,2,4-triazol-3-yl)methyl)oxetan-3-yl)isoindolin-1-one]"
14,300 to 5000,C[C@H]1CCCN(Cc2cc(N3Cc4ccc(C5(Cc6nncn6C)COC5)cc4C3=O)nc(C(F)(F)F)c2)[C@H]1C [Compound 138]
15,300 to 5000,Cn1cnnc1CC1(c2ccc3c(c2)C(=O)N(c2cc(CNCc4ncco4)cc(Cl)n2)C3)COC1 [Compound 208]
16,300 to 5000,"CC1CCC(C)N(Cc2cc(N3Cc4ccc(C5(Cc6nncn6C)COC5)cc4C3=O)nc(C(F)(F)F)c2)C1 (single isomer, unassigned) [Compound 142]"
17,300 to 5000,Cc1cc(CNCC2CC2)cc(N2Cc3ccc(-c4cc(Cl)ccc4-c4nncn4C)cc3C2=O)n1 [Compound 270]
18,80 to 300,CC1CCC(CNCc2cc(Cl)nc(N3Cc4ccc(C5(Cc6nncn6C)COC5)cc4C3=O)c2)O1 (stereo not shown) [Compound 250]
19,80 to 300,Cc1cc(CNS(C)(=O)=O)cc(N2Cc3ccc(-c4ccc(F)cc4-c4nncn4C)cc3C2=O)n1 [Compound 283]

# Test system: NFAT signaling pathway in Jurkat NFAT reporter cells
# Assay: Jurkat NFAT reporter assay
# Assay type: cell-based
# Settings: Homo sapiens, 30 min with compound, then soluble anti-human CD3/CD28 antibody for 6 hours, luciferase readout, read-out: EC50 (Group)
# Method: A human T lymphocyte Jurkat reporter cell line was further used to assess activation of the nuclear factor of activated T-cells (NFAT) signaling pathway by Cbl-b inhibitors. The reporter cell line is a genetically engineered Jurkat T cell line that expresses a luciferase reporter driven by an NFAT-response element (NFAT-RE). The Cbl-b inhibitor was incubated with 1×10^5 Jurkat NFAT reporter cells per well for 30 minutes. Subsequently, cells were stimulated with soluble anti-human CD3/CD28 antibody for 6 hours resulting in NFAT-RE-mediated luminescence. The bioluminescent signal is detected and quantified using Bio-Glo™ Luciferase Assay System. Readouts were reported as fold change over baseline. Here, baseline was the measurement obtained from Jurkat NFAT reporter cells stimulated with anti-CD3 antibody and anti-CD28 antibody, where the cells were not incubated with a Cbl-b inhibitor.
row,EC50 [nM],SMILES
1,1000 to 10000,"Cn1cnnc1C[C@]1(c2ccc3c(c2)C(=O)N(c2cc(CNCC4CC4)cc(Cl)n2)C3)C[C@@H](C#N)C1 (single isomer, unassigned) [Compound 234, (1s,3s)-3-(2-(6-Chloro-4-(((cyclopropylmethyl)amino)methyl)pyridin-2-yl)-3-oxoisoindolin-5-yl)-3-((4-methyl-4H-1,2,4-triazol-3-yl)methyl)cyclobutane-1-carbonitrile]"
2,300 to 1000,"CC1CCC(C)N(Cc2cc(N3Cc4ccc(C5(Cc6nncn6C)COC5)cc4C3=O)nc(C(F)(F)F)c2)C1 (stereo not shown) [Compound 93, 2-(4-((2,5-Dimethylpiperidin-1-yl)methyl)-6-(trifluoromethyl)pyridin-2-yl)-6-(3-((4-methyl-4H-1,2,4-triazol-3-yl)methyl)oxetan-3-yl)isoindolin-1-one]"
